Assay [1] has as its system NOS. As to the kind of experiment: Functional detection of NOS transfection in mouse mesenteric arteries by absorption spectroscopy. The text has this: Mouse 1st order mesenteric arteries are dissected out and maintained in Optimem I supplemented with 10% foetal bovine serum. cDNAs (for NOS) inserted into appropriate plasmids are mixed with LipofectAMINE according to the manufacturers instructions. Two arteries are set up in separate perfusion chambers; the first tissue (A) acts as a control (receives LipofectAMINE and plasmids without the cDNA insert), the second tissue (B) receives LipofectAMINE with plasmids containing the NOS cDNA insert. The arteries are exposed to the appropriate transfection solutions for 8 hours.
After 8 hours, the unit switches automatically and perfuses the vessels with normal PSS. Analysis of the lumen diameter via absorption spectroscopy begins, providing continual information on the contractile state of the artery.
Functional detection of NOS activity is achieved by way of a two-stage protocol. Firstly, concentration-response curves to ACh are conducted in both vessels. During the concentration-response curve, changes in the state of the blood vessels are continuously monitored by absorption spectroscopy. ACh selectively activates expressed NOS synthase and causes release of the vasodilator nitric oxide (NO). […] The control vessel should display little vasodilation to ACh, as NOS cDNA was not transfected in this tissue.
Both vessels are then perfused with normal PSS for thirty minutes. […]

Assay [2] concerns 3rd order mesenteric arteries. Kind of assay: Absorption spectroscopy of agonist-induced vasoconstriction in pressurised rat mesenteric arteries. The conditions noted are these: increasing concentrations; normotensive male Wistar rat arteries, 60 mmHg, 37° C., PSS. Here is the method:
3rd order mesenteric arteries from normotensive male Wistar rats were set up in two perfusion chambers in normal physiological salt solution (PSS), at 37° C. and gassed with 95% O2/5% CO2. The vessels were pressurised to 60 mmHg and allowed to equilibrate for 30 minutes. Thereafter, one vessel acted as a control and the other vessel received increasing concentrations of the thromboxane A2 mimetic, U46619. Transmission spectra were recorded at one second intervals and analysed according to the methods described above.
The optical extinction model described above was used to accurately and continuously measure lumen diameter.

`CC(=O)OCC[N+](C)(C)C` [ACh]: the “response of NOS cDNA-transfected blood vessel to ACh” value in assay [1] (concentration-response curve, NOS-knockout mouse 1st order mesenteric artery after 8 hours transfection) is “vasodilation”.

As to `CCCCC[C@H](O)/C=C/[C@@H]1[C@@H](C/C=C\CCCC(=O)O)[C@H]2CO[C@@H]1C2` [U46619], in assay [2], the “vasoconstriction (change in lumen diameter) detected via shifts in transmission spectra” value is given as “vasoconstriction was detected”.

Turning to `COC(=O)[C@@H](N)CCCNC(=N)N[N+](=O)[O-]` [L-NAME], the “effect on ACh responses (concentration response curve repeated in presence of inhibitor)” value in assay [1] (NOS cDNA-transfected mouse mesenteric artery) was “abolish further responses to ACh”.

The record behind these values is patent publication US20040039266A1, “Apparatus and method for measurement of biological structures” (priority 2000, published 2004).
